In patent US10004687B2 (priority 2005, dated 2018):
≈ marks a conversion by molar mass, not a printed value. Where “and” joins values, the source holds several entries; their conditions need not be identical. Identical values can stand only once. Like-named read-outs stand apart in the source and are kept apart here.

What was measured:
[1] = animal studies to date; cited from earlier work
[2] = cited from earlier work
[3] = test system: pancreatic BxPC-3 or HS766-T cells; assay: Apoptosis assay, Annexin-V/Proopidium iodide staining (FACS analysis); type: cell-based; details: concentrations equal to IC50 or IC90 of liposomal curcumin, 72 hours
Procedure: Apoptosis assay was performed using either pancreatic BxPC-3 or HS766-T cells. […] After incubation for 72 hours, the cells were assayed using Annexin-V/Proopidium iodide staining (FACS analysis) to determine how much apoptosis had occurred.

[4] = test system: pancreatic Bxpc-3, Capan-1, Capan-2, HS766-T and ASPC-1 cells; assay: MTT proliferation/survival assay, statements on all five pancreatic lines; type: cell-based; details: seventy-two hours of exposure
Procedure: (§1) Controls were exposed to 0.1% v/v DMSO. Proliferation and survival of the pancreatic cells were assessed by MTT assay, a standard colorimetric assay used to measure cell survival and proliferation (Mosman, 1983). MTT (3-[4,5-cimethylthiazol-2-yl]-2,5-diphenyl tetrazolium bromide) is cleaved by living cells to yield a dark blue formazan product. The color is quantitated by spectrophotometer and reflects cellular proliferation and survival. […] The control for each assay was exposed to 0.1% v/v DMSO.
(§2) MTT proliferation/survival assay was performed after 72 hours of incubation.
(§3) FIGS. 5-10 show graphs of the results of the assays using Bxpc-3, Capan-1, Capan-2, HS766-1 and ASPC-1 cell lines, respectively. […] The MTT assay was performed after pancreatic cells were exposed for 72 hours to each compound at concentrations ranging from 0 to 5 μg/ml.

[5] = test system: ASPC-1 pancreatic carcinoma cells; assay: MTT proliferation/survival assay, 72 hours incubation; type: cell-based; details: Homo sapiens, ASPC1, ASPC-1, MTT assay
Procedure: as §1, §2, §3

[6] = test system: Bxpc-3 pancreatic carcinoma cells; assay: as above; type: cell-based; details: Homo sapiens
Procedure: as §1, §2, §3

[7] = test system: Capan-1 pancreatic carcinoma cells; assay: as above; type: cell-based; details: Homo sapiens
Procedure: as §1, §2, §3

[8] = test system: HS766-T pancreatic carcinoma cells; assay: as above; type: cell-based; details: Hs766T
Procedure: as §1, §2, §3

[9] = test system: Capan-2 pancreatic carcinoma cells; assay: as above; type: cell-based; details: Homo sapiens, Capan-2, 72 h, CAPAN-2, MTT assay
Procedure: as §1, §2, §3

COc1cc(C=CC(=O)CC(=O)C=Cc2ccc(O)c(OC)c2)ccc1O [free curcumin, (E,E)-1,7-bis(4-hydroxy-3-methoxyphenyl)-1,6-heptadiene-3,5,-dione]
LD50 [1]: never reached an LD50
solubility in ethanol, alkalis, ketones, acetic acid and chloroform [2]: soluble
solubility in water ([2]; water): insoluble
apoptosis after treatment [3]: dose-related apoptosis
pancreatic cell growth (MTT) [4]: inhibited pancreatic cell growth of all five lines tested in a concentration-dependent manner
IC50 [5]: 4 µg/mL and 10.8 µM
IC90 [5]: 10 µg/mL and 27 µM
IC50 ([6]; read-out: 50% inhibitory concentration (IC50), BxPC-3 cells, approximate): ~5 µM
IC50 ([6]; BXPC-3, MTT assay, 72 hours incubation, read-out: IC50): 2 µg/mL and 5.4 µM
IC90 ([6]; BXPC-3, MTT assay, 72 hours incubation, read-out: IC90): 5 µg/mL and 13.5 µM
IC90 ([6]; BxPC-3 cells, approximate, read-out: 90% inhibitory concentration (IC90)): ~14 µM
IC50 ([7]; read-out: 50% inhibitory concentration (IC50), Capan-1 cells, approximate): ~5 µM
IC50 ([7]; CAPAN-1, MTT assay, 72 hours incubation, read-out: IC50): 2 µg/mL and 5.4 µM
IC90 ([7]; CAPAN-1, MTT assay, 72 hours incubation, read-out: IC90): 5 µg/mL and 13.5 µM
IC90 ([7]; Capan-1 cells, approximate, read-out: 90% inhibitory concentration (IC90)): ~14 µM
IC50 [8]: 2.6 µg/mL and 7 µM
IC90 [8]: 8 µg/mL and 21.6 µM
IC50 [9]: 17 µg/mL (≈ 46.1 µM)
IC90 [9]: 35 µg/mL (≈ 95 µM)
